Assay results reported in ChEMBL document CHEMBL5625251, “Anti-influenza virus activities and mechanism of antrafenine analogs” (Eur J Med Chem, 2023).
pIC50: −log10 of the molar value. Calls of active or inactive are those of the source. No cut-off for these calls is given here.

Columns and labels:
[1] = system: Influenza A virus; test: Antiviral activity against Influenza A virus A/WSN/33(H1N1) infected in MDCK cells assessed as inhibition of viral growth pre-infected for 1 hr followed by compound addition and measured 24 hrs post infection by plaque assay; format: functional, organism-based
[2] = Cytotoxicity against MDCK cells assessed as reduction in cell viability incubated for 48 hrs by MTT assay; format: toxicity, cell-based, Canis lupus familiaris; conditions: dog
[3] = system: Influenza A virus; test: Antiviral activity against Influenza A virus A/WSN/33(H1N1) infected in MDCK cells assessed as inhibition of viral growth 12.5 uM pre-infected for 1 hr followed by compound addition and measured 24 hrs post infection by plaque assay relative to control; format: functional; conditions: for inhibition at 12.5 µM: time 23 hrs; for inhibition: time 23.0 hrs
[4] = system: Influenza A virus; test: Antiviral activity against Influenza A virus A/WSN/33(H1N1) infected in MDCK cells assessed as inhibition of viral growth at 100 uM pre-infected for 1 hr followed by compound addition and measured 24 hrs post infection by plaque assay relative to control; format: functional; conditions: time 23 hrs
[5] = system: Influenza A virus; test: Antiviral activity against Influenza A virus A/WSN/33(H1N1) infected in MDCK cells assessed as inhibition of viral growth at 6.25 uM pre-infected for 1 hr followed by compound addition and measured 24 hrs post infection by plaque assay relative to control; format: functional; conditions: time 23 hrs
[6] = system: MDCK; test: Cytotoxicity against MDCK cells assessed as reduction in cell viability at 12.5 uM incubated for 48 hrs by MTT assay; format: toxicity, cell-based, Canis lupus familiaris; conditions: dog
[7] = system: Influenza A virus; test: Antiviral activity against Influenza A virus A/WSN/33(H1N1) infected in MDCK cells assessed as inhibition of viral growth at 50 uM pre-infected for 1 hr followed by compound addition and measured 24 hrs post infection by plaque assay relative to control; format: functional; conditions: time 23 hrs
[8] = system: Influenza A virus; test: Antiviral activity against Influenza A virus A/WSN/33(H1N1) infected in MDCK cells assessed as reduction in virus-induced cytopathic effect at 100 uM pre-infected with cells for 1 hrs followed by compound addition and measured after 2 days by MTT assay; format: functional, organism-based; conditions: time 2.0 day

| Structure (SMILES) | CC50 at 48 h [2] [µM] | further results |
| --- | --- | --- |
| CCC(CC)O[C@@H]1C=C(C(=O)O)C[C@H](N)[C@H]1NC(C)=O [OSELTAMIVIR CARBOXYLATE] | – | pIC50 [1]: 11.05 |
| O=C(NCC(=O)N1CCN(c2cccc(Cl)c2Cl)CC1)c1ccccc1Nc1ccnc2ccc(Cl)cc12 | > 50 | inhibition at 12.5 µM [3]: 24% |
| CCOC(=O)c1ccccc1Nc1ccnc2cc(C(F)(F)F)ccc12 | > 100 | inhibition at 100 µM [4]: 9.09% |
| O=C(Nc1cccc([N+](=O)[O-])c1)c1ccccc1Nc1ccnc2ccc(Cl)cc12 | – | inhibition at 6.25 µM [5]: 21.4%; Activity [6]: Toxic |
| Cc1ccccc1N1CCN(CCNC(=O)c2ccccc2Nc2ccnc3ccc(Cl)cc23)CC1 | – | Activity [6]: Toxic |
| O=C(NC1CCCCC1)c1ccccc1Nc1ccnc2cc(C(F)(F)F)ccc12 | > 50 | inhibition at 12.5 µM [3]: 41.3% |
| Cc1ccc(N2CCN(CCNC(=O)c3ccccc3Nc3ccnc4cc(C(F)(F)F)ccc34)CC2)c(C)c1 | > 100 | – |
| O=C(CNC(=O)c1ccccc1Nc1ccnc2cc(C(F)(F)F)ccc12)NC1CCCCC1 | > 100 | inhibition at 50 µM [7]: 69.3% |
| O=C(CNC(=O)c1ccccc1Nc1ccnc2ccc(Cl)cc12)NCc1ccccc1 | > 100 | Activity [8]: Active |
| O=C(Nc1ccccc1)c1ccccc1Nc1ccnc2cc(C(F)(F)F)ccc12 | > 100 | – |
| O=C(NCCN1CCN(c2ccccc2OC(F)(F)F)CC1)c1ccccc1Nc1ccnc2ccc(Cl)cc12 | > 100 | inhibition at 50 µM [7]: 50% |
| CNC(=O)c1ccccc1Nc1ccnc2cc(C(F)(F)F)ccc12 | > 100 | inhibition at 100 µM [4]: 20% |
| O=C(NCCCO)c1ccccc1Nc1ccnc2ccc(Cl)cc12 | > 100 | inhibition at 100 µM [4]: 69.5% |
| CN(C)CCNC(=O)c1ccccc1Nc1ccnc2ccc(Cl)cc12 | 19.9 | – |
| COC(=O)c1ccccc1Nc1ccnc2cc(C(F)(F)F)ccc12 | > 100 | inhibition at 100 µM [4]: 17.9% |
| NC(=O)c1ccccc1Nc1ccnc2cc(C(F)(F)F)ccc12 | > 100 | – |
| CN(C)CCNC(=O)c1ccccc1Nc1ccnc2cc(C(F)(F)F)ccc12 | 17.4 | inhibition [3]: inactive |
| CC(C)NC(=O)c1ccccc1Nc1ccnc2cc(C(F)(F)F)ccc12 | > 100 | – |
| O=C(OCCN1CCN(c2cccc(C(F)(F)F)c2)CC1)c1ccccc1Nc1ccnc2cc(C(F)(F)F)ccc12 [ANTRAFENINE] | > 100 | – |
| O=C(NCC(=O)N1CCOCC1)c1ccccc1Nc1ccnc2ccc(Cl)cc12 | > 100 | inhibition at 100 µM [4]: 65.4% |

| Structure (SMILES) | CC50 at 48 h [2] [µM] | further results |
| --- | --- | --- |
| O=C(NCCN1CCN(c2ccccc2)CC1)c1ccccc1Nc1ccnc2ccc(Cl)cc12 | > 100 | inhibition [3]: inactive; Activity [8]: Active |
| Cc1ccccc1N1CCN(C(=O)CNC(=O)c2ccccc2Nc2ccnc3ccc(Cl)cc23)CC1 | > 100 | inhibition at 12.5 µM [3]: 55.8% |
| O=C(NC12CC3CC(CC(C3)C1)C2)c1ccccc1Nc1ccnc2ccc(Cl)cc12 | – | Activity [6]: Toxic |
| Cc1ccc(N2CCN(CCNC(=O)c3ccccc3Nc3ccnc4ccc(Cl)cc34)CC2)c(C)c1 | 22.9 | – |
| CCN(CC)CCCNC(=O)c1ccccc1Nc1ccnc2ccc(Cl)cc12 | 38 | inhibition at 6.25 µM [5]: 15.3% |
| O=C(O)c1ccccc1Nc1ccnc2ccc(Cl)cc12 | > 100 | inhibition at 50 µM [7]: 3.5% |
| O=C(CNC(=O)c1ccccc1Nc1ccnc2ccc(Cl)cc12)NC1CCCCC1 | 21.6 | inhibition at 12.5 µM [3]: 44.4% |
| O=C(NCc1ccccc1)c1ccccc1Nc1ccnc2ccc(Cl)cc12 | 45.3 | – |
| O=C(NCCN1CCN(c2ccccc2Cl)CC1)c1ccccc1Nc1ccnc2ccc(Cl)cc12 | – | Activity [6]: Toxic |
| O=C(NCCN1CCN(c2ccccc2OC(F)(F)F)CC1)c1ccccc1Nc1ccnc2cc(C(F)(F)F)ccc12 | > 100 | – |
| O=C(NC12CC3CC(CC(C3)C1)C2)c1ccccc1Nc1ccnc2cc(C(F)(F)F)ccc12 | – | Activity [6]: Toxic |
| O=C(NCCN1CCN(c2cccc(Cl)c2Cl)CC1)c1ccccc1Nc1ccnc2ccc(Cl)cc12 | > 50 | – |
| O=C(NCCCO)c1ccccc1Nc1ccnc2cc(C(F)(F)F)ccc12 | > 100 | inhibition at 100 µM [4]: 62.6% |
| O=C(NCC(=O)N1CCOCC1)c1ccccc1Nc1ccnc2cc(C(F)(F)F)ccc12 | > 100 | inhibition at 100 µM [4]: 60.6% |
| O=C(c1ccccc1Nc1ccnc2cc(C(F)(F)F)ccc12)N1CCOCC1 | > 100 | – |
| O=C(NCCCN1CCOCC1)c1ccccc1Nc1ccnc2cc(C(F)(F)F)ccc12 | > 100 | inhibition at 100 µM [4]: 99.9% |
| O=C(CNC(=O)c1ccccc1Nc1ccnc2cc(C(F)(F)F)ccc12)NCCCN1CCOCC1 | > 50 | inhibition at 50 µM [7]: 94.9% |
| O=C(CNC(=O)c1ccccc1Nc1ccnc2cc(C(F)(F)F)ccc12)NCc1ccccc1 | > 100 | – |
| NC(=O)c1ccccc1Nc1ccnc2ccc(Cl)cc12 | > 100 | inhibition at 100 µM [4]: 22.5% |
| O=C(Nc1ccc(Br)cc1)c1ccccc1Nc1ccnc2cc(C(F)(F)F)ccc12 | – | inhibition at 6.25 µM [5]: 74.5%; Activity [6]: Toxic |
